From patent US10117946B2, “Self-assembling ultrashort peptides modified with bioactive agents by click chemistry” (Agency for Science, Technology and Research, priority 2012, dated 2018)
Values joined by “and” are separate entries in the source; they are usually repeats but may differ in a detail not shown here. Identical values can stand only once.

What was measured:
[1] = test system: 4T1 mouse breast cancer cells; assay: Cytotoxicity, colorimetric microculture assay (MTS assay); format: cell-based; settings: 96 h exposure
Experimental: (§1) Cytotoxicity of all synthesized compounds was evaluated on two human derived cancer cell lines namely HeLa (cervical carcinoma) and SW480 (colon carcinoma). 4T1 mouse breast cancer cells were also used for evaluation. Cells were first treated with different concentrations of the test compounds and incubated for 96 h at 37° C. Subsequently, the cell viability was measured by means of a colorimetric microculture assay (MTS assay).
(§2) Human cervical carcinoma cell line HeLa, human colon carcinoma cell line SW480 and mouse breast cancer cell line 4T1 were purchased from the American Type Culture Collection (Manassas, Va., USA). The cell lines were cultured in DME medium (Biopolis shared facilities, A*STAR, SG) supplemented with 10% heat inactivated fetal bovine serum and 1% of mixture of penicillin and streptomycin (Invitrogen, CA, U.S.A). The cells were maintained in a 75 mL cell culture flask (Nunc) at 37° C. in a humidified incubator with 95% air and 5% CO2.
Cytotoxicity was determined by means of a colorimetric microculture assay (MTs assay, MTS=[…]) For this purpose, HeLa, SW480, and 4T1 cells were harvested from culture flasks by trypsinization and seeded into 96-well microculture plates in cell densities of 3.5×10^3 cells/well. […] After incubation, the absorbance was measured at a wavelength of 499 nm using a microplate reader. […]

[2] = test system: HeLa (cervical carcinoma) cells; assay: as above; format: cell-based, human; settings: 96 h exposure
Experimental: as §1, §2
(§3) Cytotoxicity was determined by means of a colorimetric microculture assay (MTs assay, MTS=[…]) For this purpose, HeLa, SW480, and 4T1 cells were harvested from culture flasks by trypsinization and seeded into 96-well microculture plates in cell densities of 3.5×10^3 cells/well. The cells were allowed to attach for 8 h. Subsequently, cells were exposed to serial dilutions of the test compounds in 150 μL/well complete culture medium for 96 h. Then 25 uL of CellTiter 96® Aqueous one solution reagent was added to the cells, followed by incubation for 2 h at 37° C. After incubation, the absorbance was measured at a wavelength of 499 nm using a microplate reader. The quantity of vital cells was expressed in terms of T/C values in comparison to untreated control microcultures, and 50% inhibitory concentrations (IC50) were calculated from concentration-effect curves by a nonlinear curve fit using Origin Lab 7.5.

[3] = test system: SW480 (colon carcinoma) cells; assay: as above; format: cell-based, human; settings: 96 h exposure
Experimental: as §1, §2, §3

4T1 cells = assay: Cell cycle analysis (propidium iodide, flow cytometry); format: cell-based, mouse; settings: 10 μM, 96 h
Experimental: (§4) To further characterize the in vitro efficacy of 3-6, cell cycle analysis and measurement of caspase activity was conducted after incubation with the drug candidates. […] Oxaliplatin coordinates to DNA nucleotides, preventing the cell from crossing the DNA damage check point. […] This is very close to the oxaliplatin control were about 55% of the cells were in a G2/M arrest. […] The fact that all compounds were associated with an increase in the G2/M phase proves that compound 3-6 is able to bind to DNA in the tested cells, although the effect is not as pronounced as in the oxaliplatin control.
(§5) Cells (3×10^6 cells) were seeded into 10 cm petridishes and allowed to recover for 24 h. The medium was exchanged to serum free DME medium and the cells were allowed to synchronize for 24 h. The medium was later changed to DME medium containing 10% heat inactivated fetal bovine serum and 1% of mixture of penicillin and streptomycin (Invitrogen, CA, U.S.A). Cells were exposed to 10 μM of the test compounds for 96 h. Control and treated cells were collected, washed with PBS, fixed in 70% ice-cold ethanol, and stored at −20° C. To determine cell cycle distributions, cells were transferred to a PBS solution, incubated with 10 μg/mL RNase A for 30 min at 37° C., and treated with 5 μg/mL propidium iodide for 30 min. Fluorescence of individual cells was measured by flow cytometry, […]

[4] = In vivo study, body weight comparison of treatment groups; design: species or system mouse
Source text: (§6) Female BALB/c mice were divided into four groups for treatment (PBS group and Ac-LIVAGK-NH2 (SEQ ID NO. 16 acylated and amidated) hydrogel group as negative controls, oxaliplatin as positive control and test compound 3 as a hybrid hydrogel with Ac-LIVAGK-NH2 (SEQ ID NO. 16 acylated and amidated)). Each group comprised of 9 mice. Tumour growth was initiated via a subcutaneous injection of 1 million 4T1 cells into the mouse flank. Seven days after cell injection, compound 3 was directly injected into the tumor using Ac-LIVAGK-NH2 (SEQ ID NO. 16 acylated and amidated), its parent peptide, as gel matrix. The same volume was accordingly injected into the other three groups. As a first dose 15 mg/kg oxaliplatin was used, which is equivalent to 44 mg/kg of compound 3. A re-injection was performed on day 21 of the experiment. The animals were sacrificed on day 28 and final tumor size was measured.
The same holds true for day 21 of the experiment. […] This was confirmed by a significant weight difference between the oxaliplatin group and the group treated with compound 3. Therefore, reinjection on day 21 involved only half the initial dose.
(§7) Adult female Balb/c mice used in this study (weight 20 g; aged 6-8 weeks) were provided by Biological Resource Center (BRC), A*Star, Biopolis, Singapore. For tumor establishment, 1×10^6 mouse 4T1 breast cancer cells were injected subcutaneously into the flank of Balb/c mice (designated as day 0). To investigate the effect of the mixture of Oxaliplatin and hydrogel, the tumor-inoculated animals were divided into 4 groups (n=9 per group) on day 7 post-tumor inoculation and received an intratumor injection of sample solutions: phosphate buffered saline (PBS), Ac-LIVAGK-NH2 (SEQ ID NO. 16 acylated and amidated) (12.5 mg/mL) oxaliplatin (15 mg/kg), 3 (44 mg/kg) and Ac-LIVAGK-NH2 (SEQ ID NO. 16 acylated and amidated) (12.5 mg/mL). 100 μL of each sample were injected directly into the tumor. The hydrogels were prepared prior to injection by dissolving the peptide in 1×PBS and vortexing for 1 min. The sample containing 3 was prepared in a similar manner; 3 was dissolved in 1×PBS and the resulting solution was added to the peptide and vortexed for 1 min. A solid hydrogel was observed about 10 min after sample preparation, to allow in situ gelation inside the tumor.
(§8) Data are represented as mean±SE. […] A P-value of <0.05 was considered to be statistically significant.

SW480 cells = assay: Cell cycle analysis (propidium iodide, flow cytometry); format: cell-based, human; settings: 10 μM, 96 h
Experimental: as §4, §5

[5] = test system: 4T1 breast cancer tumor in BALB/c mice; assay: In vivo therapeutic efficacy, intratumoral injection, tumor volume; design: species or system mouse; settings: for Tumor volume, Significant? vs. PBS, Day 14: Holm-Sidak, overall significance level 0.05, comparator PBS group
Source text: as §6, §7
Tumor volume was determined by measurement with an electronic digital vernier caliper. Readings were taken once a week until day 28 post-tumor inoculation. The ellipsoid volume of the tumor (mm^3) was then calculated using the formula: Volume=(Width)×(Length)×(height)×π/6.
as §8

[6] = Gelation ability in water (vortexing, left to stand overnight); format: physicochemical
Experimental: To test the gelation ability of compounds 3-8, they were dissolved in water by vortexing and left to stand overnight. […] In contrast, the alkyne-derived peptide P1 gelled in water at a concentration of 30 mg/mL, which is close to the minimal gelation concentration of its parent peptide SEQ ID NO 16 Ac-LIVAGK-NH2 (Ac-LK6-NH2). […] We assume, that the derivatization of the peptides with cisplatin or oxaliplatin and a bulky triazole group interferes with their self-assembly by changing the lipophilicity of the N-terminus of the peptide. However, stable hybrid gels could be formed with up to 40 wt % loading when the parent peptide was used as a matrix.

[7] = Holm-Sidak, 0.05, comparator Ac-LK6-NH2 hydrogel group
[8] = Holm-Sidak, 0.05, comparator PBS group
[9] = comparator Ac-LK6-NH2 hydrogel group
[10] = Holm-Sidak pairwise comparison, comparator Ac-LK6-NH2 hydrogel group
[11] = Holm-Sidak pairwise comparison, comparator PBS group

Compound: N.N.[Cl][Pt][Cl] [cisplatin]
- IC50 [1]: 1500 ± 600 nM
- IC50 [2]: 620 nM and 1000 nM
- IC50 [3]: 4000 ± 2500 nM

Compound: O=C1[O][Pt]2([NH][C@@H]3CCCC[C@H]3[NH]2)[O]C1=O [oxaliplatin]
- IC50 [1]: 1800 ± 500 nM
- apoptotic cells (4T1 cells): about 30%
- cells arrested in G2/M (4T1 cells): about 55%
- IC50 [2]: 2000 ± 800 nM
- IC50 [3]: 500 nM and 470 nM
- Weight, Significant? vs. Ac-LK6-NH2, Day 20 [4, 7]: Yes
- Weight, Significant? vs. Ac-LK6-NH2, Day 28 [4, 7]: Yes
- Weight, Significant? vs. PBS, Day 20 [4, 8]: Yes
- Weight, Significant? vs. PBS, Day 28 [4, 8]: Yes
- Weight, Mean, Day 20 ([4]; body weight of BALB/c mice, day 20, injection day 7, n=9): 19.754
- Weight, Mean, Day 28 ([4]; body weight of BALB/c mice, day 28, re-injection day 21 with half dose, n=9): 20.593
- Weight, Diff of Means vs. Ac-LK6-NH2, Day 20 [4, 9]: 2.831
- Weight, Diff of Means vs. Ac-LK6-NH2, Day 28 [4, 9]: 1.982
- Weight, Diff of Means vs. PBS, Day 20 ([4]; comparator PBS group): 2.813
- Weight, Diff of Means vs. PBS, Day 28 ([4]; comparator PBS group): 1.742
- effect on the mice at the administered dose, compared to conjugate 3 ([4]; oxaliplatin 15 mg/kg intratumoral, confirmed by significant weight difference): significant deleterious effect
- apoptotic cells (SW480 cells): no apoptotic cells
- cells arrested in G2/M (SW480 cells): about 80%
- Tumor volume, Diff of Means vs. Ac-LK6-NH2, Day 14 [5, 10]: 101.218 mm^3
- Tumor volume, Diff of Means vs. Ac-LK6-NH2, Day 28 [5, 10]: 1150.053 mm^3
- Tumor volume, Diff of Means vs. LK6, Day 21 ([5]; Holm-Sidak pairwise comparison, comparator LK6 hydrogel group): 487.488 mm^3
- Tumor volume, Diff of Means vs. PBS, Day 14 [5, 11]: 253.590 mm^3
- Tumor volume, Diff of Means vs. PBS, Day 21 [5, 11]: 580.470 mm^3
- Tumor volume, Diff of Means vs. PBS, Day 28 [5, 11]: 855.616 mm^3
- Tumor volume, Significant? vs. Ac-LK6-NH2, Day 14 [5, 7]: No
- Tumor volume, Significant? vs. Ac-LK6-NH2, Day 28 [5, 7]: Yes
- Tumor volume, Significant? vs. LK6, Day 21 ([5]; Holm-Sidak, 0.05, comparator LK6 hydrogel group): Yes
- Tumor volume, Significant? vs. PBS, Day 21 [5, 8]: Yes
- Tumor volume, Significant? vs. PBS, Day 28 [5, 8]: Yes
- Tumor volume, Significant? vs. PBS, Day 14 [5]: Significant tumor reduction
- Tumor volume, Significant? vs. PBS, Day 14 ([5]; listed as Oxaliplatin): Yes
- Tumor volume, Mean, Day 7 ([5]; day 7 post-tumor inoculation = day of first intratumoral injection (baseline), n=9): 61.938 mm^3
- Tumor volume, Mean, Day 14 ([5]; day 14, intratumoral injection day 7: oxaliplatin 15 mg/kg or 3 44 mg/kg in Ac-LIVAGK-NH2 gel, n=9): 135.101 mm^3
- Tumor volume, Mean, Day 21 ([5]; day 21, intratumoral injection day 7: oxaliplatin 15 mg/kg or 3 44 mg/kg in Ac-LIVAGK-NH2 gel, n=9): 96.493 mm^3
- Tumor volume, Mean, Day 28 ([5]; day 28, injection day 7, re-injection day 21 with half the initial dose, n=9): 250.650 mm^3

Compound: P1: alkyne-derived (propiolic acid functionalized) peptide; parent peptide Ac-LIVAGK-NH2 (also: propiolic acid alkyne functionalization, site not given here) [Compound P1]
- concentration at which the peptide gelled in water [6]: 30000 µg/mL
